# Publication PMC12522106 (Cancer Research Communications, 2025)
# Tests used:
# [1] = test system: 143B sarcospheres; assay: Cell cycle analysis by flow cytometry (DAPI); format: cell-based, human; settings: 10 nmol/L for 24 hours
# Experimental: (§1) Sarcospheres were washed with PBS to remove any media and then resuspended in Accumax Cell Detachment Solution ([…] Technologies, #07921) for 15 to 30 minutes. Sarcospheres were manually dissociated by pipetting up and down at least 10 times. Following dissociation, cells were fixed in Cytofix/Cytoperm (BD Cytofix/Cytoperm Fixation/Permeabilization Solution Kit, BDB554714) for 10 to 20 minutes at 4°C protected from light. Fixation solution was removed with two washes in sterile PBS. Cells were resuspended in PBS and stored for no more than 72 hours at 4°C. Cells were transferred to flow cytometry tubes for staining. For DAPI staining, 1 mg/mL DAPI (BD Pharmingen, #564907) was diluted 1000-fold in sterile PBS and 500 μL was added to the appropriate tubes containing an equal volume of cell suspension. Flow cytometry was performed using a BD LSRFortessa X-20 flow cytometer using a 407 laser. Cell cycle analysis was performed using the Watson model in FlowJo software (version 10.10.0).
# [2] = test system: LM7 sarcospheres; assay: Cell cycle analysis by flow cytometry (DAPI); format: cell-based, human; settings: 10 nmol/L for 24 hours
# Experimental: as §1
# [3] = test system: monolayers of either established osteosarcoma cell lines or PDX cell lines; set-up: method as in PMID 30395907, PMID 26601688, PMID 37457661, PMID 35411591; settings: cited from earlier work
# [4] = test system: sarcospheres from human patients with osteosarcoma; assay: Resazurin metabolic activity of human patient-derived sarcospheres; format: cell-based; settings: for ED50: 48 hours, metabolic activity
# Description: Osteosarcoma tissue was obtained during standard-of-care procedures (biopsies or resections) in human patients treated at Indiana University Health and Riley Children’s Hospital with Institutional Review Board approval (#1501467439). Tissue from canine patients with osteosarcoma was obtained from standard-of-care amputations at the Purdue University College of Veterinary Medicine and the Metropolitan Veterinary Hospital. Osteosarcoma diagnosis was confirmed by review of pathology reports. Demographic and clinical information for human and canine patients is in Table 1. Primary osteosarcoma cells were isolated by collagenase/mechanical dispersion using a modification of a previously described protocol ([35]). […] The tissue was rinsed with cold PBS (Cytiva, cat. #SH30028.02) and minced prior to incubation in 10 mL of culture media containing collagenase type II (750 units/mL with 13–18 units of clostripain/mL, Worthington, cat. #LS004176) for 3 hours at 37°C and 5% CO2. The media and tissue fragments were centrifuged at 200 g for 5 minutes. Pellets with a visible layer of red blood cells were then treated with 5 mL of ACK Lysing Buffer (Gibco, cat. #A10492-01) for 1 minute and then centrifuged at 200 g for 2 minutes. Pellets were resuspended in culture media, pipetted up and down 15 times to disperse tissue fragments, and centrifuged at 200 g for 5 minutes. Finally, any remaining tissue fragments were crushed with a 25-mL pipette and transferred with released cells and culture media to a 100-mm tissue culture dish and incubated at 37°C and 5% CO2. Media were changed every 3 days. When a confluence of ∼80% was reached, the cells were passaged to 150-mm dishes at 5,000 cells/cm^2. Aliquots of the patient-derived osteosarcoma cells were frozen in 10% DMSO (Sigma-Aldrich, D2650), 40% FBS (Cytiva, SH30071.03), and 50% culture media at second passage and stored in liquid nitrogen. The TT2-77 xenoline is a patient cell line that was isolated from a patient-derived xenograft (PDX) that was previously developed and characterized by the Pollok lab ([5]).
# The number of patient-derived cells required to obtain sarcospheres with 400-μm diameters was determined for each patient and varied from 1,000 to 15,000 cells per sarcosphere.
# Round-bottom 96-well plates were coated with 50 μL/well of 0.5% poly 2-hydroxyethyl methacrylate (Polysciences Inc., cat. #09689-25) in 100% ethanol and incubated at 37°C for 3 days before use to obtain a nonadherent surface. […] Highly metastatic osteosarcoma cells cultured in monolayers at 50% to 80% confluence were lifted with Accutase (Innovative Cell Technologies, Inc., cat. #NC9839010), resuspended in media, and diluted to the desired concentration.
# [5] = test system: LM7 sarcospheres; assay: Sarcosphere resazurin metabolic activity (initial and secondary screens); format: cell-based, human; settings: secondary screen; without MAP
# Experimental: Khanna DVM, PhD (NCI). […] Medium was sterile filtered before use.
# Highly metastatic osteosarcoma cells cultured in monolayers at 50% to 80% confluence were lifted with Accutase (Innovative Cell Technologies, Inc., cat. #NC9839010), resuspended in media, and diluted to the desired concentration. […] Following cell seeding, plates were centrifuged (1,000 g for 10 minutes at 4°C) and then incubated at 37°C with 5% CO2. […] Then, 100 μL drug treatment or vehicle was added to each well. […] Resazurin reduction on day 2 by vehicle-treated sarcospheres was compared with resazurin reduction on day 0 to calculate sarcosphere growth without drug over 2 days in selected experiments.
# Plates were incubated at 37°C in 5% CO2 for 2 or 6 hours.
# Sarcospheres were matured for 24 hours and then treated for 48 hours with media containing 10 µmol/L of each drug and 0.1% DMSO. […] Growth inhibition represents a more clinically translatable measure for screening studies in which a value of 0% represents stable disease since the start of treatment, values of 0% to 100% represent progression in which 100% is the untreated control, and values less than 0% represent regression in which −100% represents blank wells without sarcospheres.
smiles,measurement,setting,value
C/C=C1\NC(=O)[C@H]2CSSCC/C=C/[C@H](CC(=O)N[C@H](C(C)C)C(=O)N2)OC(=O)[C@H](C(C)C)NC1=O [romidepsin],cell cycle block,[1],induced a G2–M cell cycle block
same,proportion of sub-G1 cells,[1],without altering the proportion of sub-G1 cells
same,cell cycle block,[2],without inducing a cell cycle block
same,proportion of sub-G1 cells,[2],increased the proportion of sub-G1 cells
same,standing in four independent screens,[3],among the top hits
same,share of human patient samples whose sarcospheres responded,[4]; ED50s <70 nmol/L,~30%
same,ED50,[4]; TT2-77 Xenoline (romidepsin sensitive),10 nmol/L
same,ED50 of the notably more sensitive patient,[4]; one patient,1 nM
same,ED50,[4]; patient sample IUhOS002LR (romidepsin resistant),">1,000 nmol/L"
same,ED50,[4]; patient sample IUhOS005B (romidepsin resistant),">1,000 nmol/L"
same,ED50,[4]; patient sample IUhOS006B (romidepsin sensitive),6 nmol/L
same,ED50,[4]; patient sample IUhOS013B (romidepsin resistant),">1,000 nmol/L"
same,ED50,[4]; patient sample IUhOS018B (romidepsin sensitive),1 nmol/L
same,ED50,[4]; patient sample IUhOS020LR (romidepsin sensitive),63 nmol/L
same,ED50,[4]; patient sample IUhOS021B (romidepsin resistant),">1,000 nmol/L"
same,ED50,[4]; patient sample IUhOS027P (romidepsin resistant),">1,000 nmol/L"
same,ED50,[4]; patient sample IUhOS029LR (romidepsin resistant),">1,000 nmol/L"
same,ED50,[4]; patient sample IUhOS0410B (romidepsin resistant),">1,000 nmol/L"
same,ED50,[4]; patient sample IUhOS0410P (romidepsin resistant),">1,000 nmol/L"
same,ED50,[4]; patient sample IUhOS1516B (romidepsin sensitive),10 nmol/L
same,ED50,[4]; patient sample IUhOS1516P (romidepsin resistant),">1,000 nmol/L"
same,ED50,[4]; patient sample IUhOS1925B (romidepsin resistant),">1,000 nmol/L"
same,ED50,[4]; patient sample IUhOS1925P (romidepsin resistant),">1,000 nmol/L"
same,ED50,[4]; patient sample IUhOS2226B (romidepsin resistant),">1,000 nmol/L"
same,ED50,[4]; patient sample IUhOS2226P (romidepsin resistant),">1,000 nmol/L"
same,rank of ED50 among the 13 drugs,[5],lowest ED50
